In brackets after ≈: the same amount, converted by molar mass. Like-named read-outs stand apart in the source and are kept apart here. Where a SMILES comes first, the peptide text is derived from it.
Assays:
[1] = tested on: Candida albicans ATCC 90028; conditions: ATCC 90028, 5 h
Protocol: (§1) The three bacterial strains: Escherichia coli ATCC 25922, Pseudomonas aeruginosa ATCC 27853 Staphylococcus aureus ATCC 29213 as well as the fungal strain Candida albicans ATCC 90028 derived from clinical wound infections were obtained from the Department of Clinical Bacteriology at Lund University Hospital.
(§2) Antimicrobial activities of the peptides were evaluated using the two-step microdilution assay ([Strömstedt et al., 2017]), which is designed for testing AMPs without activity-inhibiting components. Briefly, the microbial suspension was washed twice with 10 mM Tris buffer (set to pH 7.4 at 37°C). 96-well plates (U-shaped, untreated polystyrene) were prepared with peptide 2-fold serial dilutions in Tris buffer. The culture density was quantified by OD600, diluted in Tris buffer and 50,000 cells aliquoted to each well in the 96-well plate to a final 100 μl volume. After 5 h of aerobic incubation at 37°C, 5 μl of 20% TSB medium was added to each well (resulting in 1% TSB) and the plates were re-incubated. Growth-inhibition was monitored when controls produced pellet sizes of 2 mm in diameter (close to growth saturation), which equates to 5, 8, 10, and 12 h for E. coli, S. aureus, P. aeruginosa, and C. albicans, respectively. […] The MIC-values in Table 1, are medians from triplicate experiments, while the data presented in the Figure 2 are the same values relative to that of KR-12.

[2] = tested on: Escherichia coli ATCC 25922; conditions: ATCC 25922, 5 h
Protocol: as §1, §2

[3] = tested on: Pseudomonas aeruginosa ATCC 27853; conditions: ATCC 27853, 5 h
Protocol: as §1, §2

[4] = tested on: Staphylococcus aureus ATCC 29213; conditions: ATCC 29213, 5 h
Protocol: as §1, §2

[5] = type: cell-based, human
Text: FIGURE 4 Cytotoxicity. Cytotoxicity on a human lymphoma cell line (U-937 GTB). The cell viability derives from the hydrolysis of the probe fluorescein diacetate by esterases in cells with intact plasma membranes. Results are means from triplicates with standard deviation, and the IC50 level is highlighted by a double line. The dose–response curve for LL-37 has been constrained within 100% to compensate for elevated fluorescein hydrolysis by intermediate LL-37 concentrations. The data for KR-12, Q5K,D9K and LL-37 are from our previous work ([Gunasekera et al., 2018]), but tested in parallel with the dimers and included here for consistency.
The cytotoxicity of the peptides was tested on the human lymphoma cell line U-937 GTB in a fluorometric microculture cytotoxicity assay (FMCA), described in detail previously ([Sundström and Nilsson, 1976]; [Lindhagen et al., 2008]). […] After incubation for 40 minutes the fluorescence was measured at 485 nm excitation and 538 nm emission using a Fluoroscan II (Labsystems Diagnostics Oy, Helsinki, FinlandI). The IC50-values were calculated using sigmoidal dose response curves with nonlinear non-linear regression and 0/100 constraints in GraphPad Prism (GraphPad Software, San Diego, CA, United States). […]

Human type A RBCs = assay: Hemolysis assay; type: cell-based
Protocol: Peptides were dissolved in water and serially diluted in PBS to give 20 μl test solutions in a 96-well U-bottomed microtiter plate (Nunc). Human type A RBCs (red blood cells) were washed with PBS and centrifuged at 1500 g for 60 s in a microcentrifuge several times until a clear supernatant was obtained. A 0.25% suspension of washed RBCs in PBS (100 μl) was added to the peptide solutions. The plate was incubated at 37°C for 1 h and centrifuged at 150 g for 5 min. Aliquots of 100 μl were transferred to a 96-well flat-bottomed microtiter plate (Falcon) and the absorbance was measured at 405 nm with an automatic Multiskan Ascent plate reader (Labsystems). The amount of hemolysis was calculated as the percentage of maximum lysis (1% Triton X-100 control) after adjusting for minimum lysis (PBS control). Synthetic melittin (Sigma) was used for comparison. The hemolytic dose necessary to lyse 50% of the RBCs (HD50) was calculated using the regression constant from the linear portion of the hemolytic titration curve (GraphPad Prism software).

in vitro = conditions: human, 25% human serum
Protocol: Proteolytic stability of the peptides were determined in diluted human serum (1:4 v/v, serum:PBS) at 37°C followed by LC-MS analysis. To examine the intact peptide after serum incubation, aliquots of each incubation mixture were taken at each time point for LC-MS analysis (Figure 5).
Peptide stability was assayed in diluted human serum. 25% human serum was centrifuged at 13,000 rpm for 10 min to remove lipids and the supernatant was collected and incubated at 37°C for 15 min. […] Eighty μl of 6 M urea was added and incubated at 4°C for a further 10 min. 80 μl of 20% TCA was added and incubated at 4°C for a further 10 min. The samples were centrifuged at 13000 g for 10 min and the supernatant was analyzed by LC-MS.

[6] = tested on: human lymphoma cell line U-937 GTB; conditions: read-out: IC50 (cytotoxicity); 72 hours incubation; tested in parallel with the dimers; ref Gunasekera et al., 2018; cited from earlier work

SMILES	MIC C. albicans [1] [µM]	MIC fung. [1] [µM]	MIC E. coli [2] [µM]	MIC bact. [2] [µM]	MIC P. aeruginosa [3] [µM]	MIC S. aureus [4] [µM]	IC50 [5] [µM]	HC50 (hemolysis) (Human type A RBCs) [µM]	remaining at 6 h (in vitro) [%]	IC50 [6] [µM]	HC50 (hemolysis) (Human type A RBCs; red cells of human, 1 h) [µM]
CC[C@H](C)[C@@H]1NC(=O)[C@H](CCCNC(=N)N)NC(=O)[C@H](CCC(N)=O)NC(=O)[C@H](C(C)C)NC(=O)[C@H]([C@@H](C)CC)NC(=O)[C@H](CCCNC(=N)N)NC(=O)[C@H](CCCCN)NC(=O)CNC(=O)CNC(=O)[C@H](C)NC(=O)CNC(=O)[C@H](CCCNC(=N)N)NC(=O)[C@H](CC(C)C)NC(=O)[C@H](Cc2ccccc2)NC(=O)[C@H](CC(=O)O)NC(=O)[C@H](CCCCN)NC(=O)[C@H]([C@@H](C)CC)NC(=O)[C@H](CCCNC(=N)N)NC(=O)[C@H](CCC(N)=O)NC(=O)[C@H](C(C)C)NC(=O)[C@H]([C@@H](C)CC)NC(=O)[C@H](CCCNC(=N)N)NC(=O)[C@H](CCCCN)NC(=O)CNC(=O)CNC(=O)[C@H](C)NC(=O)CNC(=O)[C@H](CCCNC(=N)N)NC(=O)[C@H](CC(C)C)NC(=O)[C@H](Cc2ccccc2)NC(=O)[C@H](CC(=O)O)NC(=O)[C@H](CCCCN)NC1=O [cd4] (cyclo(AGGKRIVQRIKDFLRGAGGKRIVQRIKDFLRG))	2.5 (≈ 8.98 µg/mL)	2.5 (≈ 8.98 µg/mL)	0.625 (≈ 2.25 µg/mL)	0.63 (≈ 2.26 µg/mL)	0.625 (≈ 2.25 µg/mL)	1.25 (≈ 4.49 µg/mL)	5.1	> 40	~50	–	–
CC[C@H](C)[C@H](NC(=O)[C@H](CCCCN)NC(=O)[C@H](CCC(=O)O)NC(=O)[C@H](CCCCN)NC(=O)[C@H](CO)NC(=O)[C@H](CCCCN)NC(=O)[C@H](CCCNC(=N)N)NC(=O)[C@H](Cc1ccccc1)NC(=O)[C@H](Cc1ccccc1)NC(=O)[C@H](CC(=O)O)NC(=O)CNC(=O)[C@H](CC(C)C)NC(=O)[C@@H](N)CC(C)C)C(=O)NCC(=O)N[C@@H](CCCCN)C(=O)N[C@@H](CCC(=O)O)C(=O)N[C@@H](Cc1ccccc1)C(=O)N[C@@H](CCCCN)C(=O)N[C@@H](CCCNC(=N)N)C(=O)N[C@H](C(=O)N[C@H](C(=O)N[C@@H](CCC(N)=O)C(=O)N[C@@H](CCCNC(=N)N)C(=O)N[C@H](C(=O)N[C@@H](CCCCN)C(=O)N[C@@H](CC(=O)O)C(=O)N[C@@H](Cc1ccccc1)C(=O)N[C@@H](CC(C)C)C(=O)N[C@@H](CCCNC(=N)N)C(=O)N[C@@H](CC(N)=O)C(=O)N[C@@H](CC(C)C)C(=O)N[C@H](C(=O)N1CCC[C@H]1C(=O)N[C@@H](CCCNC(=N)N)C(=O)N[C@H](C(=O)N[C@@H](CCC(=O)O)C(=O)N[C@@H](CO)C(=O)O)[C@@H](C)O)C(C)C)[C@@H](C)CC)C(C)C)[C@@H](C)CC [LL-37]	–	–	–	–	–	–	–	–	–	10	–
CC[C@H](C)[C@@H]1NC(=O)[C@H](CCCNC(=N)N)NC(=O)[C@H](CCCCN)NC(=O)[C@H](C(C)C)NC(=O)[C@H]([C@@H](C)CC)NC(=O)[C@H](CCCNC(=N)N)NC(=O)[C@H](CCCCN)NC(=O)CNC(=O)CNC(=O)[C@H](C)NC(=O)CNC(=O)[C@H](CCCNC(=N)N)NC(=O)[C@H](CC(C)C)NC(=O)[C@H](Cc2ccccc2)NC(=O)[C@H](CCCCN)NC(=O)[C@H](CCCCN)NC(=O)[C@H]([C@@H](C)CC)NC(=O)[C@H](CCCNC(=N)N)NC(=O)[C@H](CCCCN)NC(=O)[C@H](C(C)C)NC(=O)[C@H]([C@@H](C)CC)NC(=O)[C@H](CCCNC(=N)N)NC(=O)[C@H](CCCCN)NC(=O)CNC(=O)CNC(=O)[C@H](C)NC(=O)CNC(=O)[C@H](CCCNC(=N)N)NC(=O)[C@H](CC(C)C)NC(=O)[C@H](Cc2ccccc2)NC(=O)[C@H](CCCCN)NC(=O)[C@H](CCCCN)NC1=O [cd4(Q5K,D9K)] (cyclo(AGGKRIVKRIKKFLRGAGGKRIVKRIKKFLRG))	1.25 (≈ 4.52 µg/mL)	1.25 (≈ 4.52 µg/mL)	0.625 (≈ 2.26 µg/mL)	0.63 (≈ 2.28 µg/mL)	0.625 (≈ 2.26 µg/mL)	0.625 (≈ 2.26 µg/mL)	1	–	~50	–	10

From PMC7046553, “Backbone Cyclization and Dimerization of LL-37-Derived Peptides Enhance Antimicrobial Activity and Proteolytic Stability” (Frontiers in Microbiology, 2020)
